Consider 52 compounds from PubChem BioAssay AID504645 (Southern Research Specialized Biocontainment Screening …, 2011).

The test concerns M. tuberculosis H37Rv growth inhibition, glycerol-free medium. The test is described as follows: M tuberculosis H37Rv growth inhibition in absence of glycerol, confirmatory, IC90 (AID 504645).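 As to all read-outs here: bacteria grown one week before the viability dye was added.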 Conditions: for IC90: measured here: 90% growth inhibition.

Structures are written as SMILES. “And” between values parts separate entries of the source, which are not always exact repeats. Identical values can stand only once. Where a SMILES comes first, the peptide text is derived from it. The star is where a group is joined. Cbz = O=C(OCc1ccccc1)* Where only a bound is given, the exact number is not on record here.

The IC50 is the midpoint of a concentration-inhibition curve. In general, IC90 refers to the concentration needed for an effect of 90%. Read a low IC90 as greater potency. Take `O=C(c1ccc(CNc2c(N3CCCC3)c(=O)c2=O)cc1)N1CC=C(c2ccccc2)CC1`: the IC50 is 2520 nM and the IC90 was 6.76 µM.
On the same counts, the results for `COc1ccc(-n2nnc3c(SCC(=O)OCc4ccccc4)ncnc32)cc1` are 2810 nM and more than 25 µM.
Consider `Nc1c(C(=O)NC2CCCCC2)nsc1C(=O)OCC(=O)NC1CCCCC1`, for which the IC50 is 1230 nM and the IC90 turned out to be 2.64 µM.
With `CCOc1ccc(NC(=O)CSc2nc(O)c(C)c(=O)n2-c2ccc(F)cc2)cc1`, the IC90 is more than 25 µM.
In the case of `CCOC(=O)COc1ccc(/C=C2\NC(=S)N(CC)C2=O)cc1`, the IC50 was 2620 nM and the IC90 is 4.74 µM.
`CC(C)NC(=O)c1sc(=S)n2c1[nH]c(=O)c1ccc(C(=O)NCCc3ccc(Cl)cc3)cc12`: the half-inhibitory concentration (IC50) was 310 nM and the 90% effect concentration (IC90) was found to be 0.53 µM.
As for `CC1CCCN(C(=O)C2CCC(CNc3c(N4CCCCC4)c(=O)c3=O)CC2)C1` (stereo unspecified), the IC50 was 19000 nM and the IC90 is more than 25 µM.
Turning to `CCc1c(C)nc(SCC(=O)NC2CCCC2)[nH]c1=O`, the IC50 is 2250 nM and the IC90 is 3.21 µM.
With `Cc1ccc(NC(=O)COC(=O)CCc2c[nH]c3ccccc23)cc1[N+](=O)[O-]`, the IC50 was 1920 nM and the IC90 is 4.35 µM.
On to `CC(C)CCNC(=O)CSc1nc2ccccc2c(=O)[nH]1`, for which the IC50 was 2310 nM and the concentration for an effect of 90% (IC90) turned out to be 3.83 µM.
The like results for `CCC(C)Nc1ccc(NC(C)CC)cc1` (stereo unspecified) were, in that order, 1270 nM and 1.94 µM.
For the compound `CC1CCN(C(=O)c2ccc(CNc3c(N4CCCC4)c(=O)c3=O)cc2)CC1`, the IC50 is 5850 nM and the IC90 came to 6.69 µM.
With `CCc1ccc(/C=C2/C(=O)N(C)C(=S)N2CC(=O)OC)s1`, the IC50 is 1910 nM and the IC90 worked out at 4.61 µM.
For the compound `Cc1ccc2c(c1)c(C1=c3ccccc3=NC1=O)c(O)n2C`, the IC50 was 1460 nM and the IC90 was determined as 3.61 µM.
Turning to `CCOC(=O)COn1c2c(c3c4no[n+]([O-])c4ccc31)CCCC2`, the IC50 is 1850 nM and the IC90 was 2.86 µM.
`O=C(c1ccc(CNc2c(N3CCCC3)c(=O)c2=O)cc1)N1CCN(C2CCCCC2)CC1`: the IC90 is more than 25 µM.
With `COC(=O)C(C)Oc1ccc(Cc2ncc(C(F)(F)F)cc2Cl)cc1` (stereo unspecified), the IC50 is 2620 nM and the IC90 came out at 4.01 µM.
Regarding `O=C(c1ccc(CNc2c(N3CCOCC3)c(=O)c2=O)cc1)N1CC=C(c2ccccc2)CC1`, the half-inhibitory concentration (IC50) is 1110 nM and the IC90 was 2.17 µM.
`Cc1cccc(N2CCN(C(=O)c3ccc(CNc4c(N5CCC(C)CC5)c(=O)c4=O)cc3)CC2)c1C` showed an IC90 of more than 25 µM.
As to `COC(=O)C(C)Sc1ncnc2c1nnn2-c1ccc(F)cc1` (stereo unspecified), the IC50 was 2420 nM and the IC90 was 4.38 µM.
Consider `CC[N+](C)(CC)CCCCOc1ccc2c(c1)C(=O)c1cc(OCCCC[N+](C)(CC)CC)ccc1-2`, for which the IC50 is 1320 nM and the IC90 turned out to be 2.13 µM.
On the same counts, the results for `O=C(NCCc1ccc(Cl)cc1)c1ccc(CNc2c(N3CCOCC3)c(=O)c2=O)cc1` are 5060 nM and 6.95 µM.
Turning to `CC1CC(C)CN(C(=O)C2CCC(CNc3c(N4CCCCC4)c(=O)c3=O)CC2)C1` (stereo unspecified), the IC50 is 13300 nM and the IC90 is more than 25 µM.
Take `CC1CCN(C(=O)C2CCN(c3nnc(-n4cccc4)s3)CC2)CC1`: the IC50 is 1640 nM and the IC90 is 3.34 µM.
In the case of `Cc1cc(Br)ccc1NC(=O)c1cnc(N2CCN(c3ccccn3)CC2)c2ccccc12`, the IC50 is 1250 nM and the IC90 amounted to 2 µM.
As to `CCOC(=O)CSc1ncnc2c1cnn2-c1ccc(C)cc1`, the IC50 is 10100 nM and the IC90 was more than 25 µM.
With `COC(=O)C(C)Oc1ccc(-c2nccc(-c3ccccn3)n2)cc1` (stereo unspecified), the IC50 was 2640 nM and the IC90 came out at 4.53 µM.
Regarding `CCOC1OC(=O)C(Cl)=C1Nc1ccccc1C` (stereo unspecified), the IC50 was 2260 nM and the IC90 was 5.59 µM.
For the compound `O=C(c1ccc(CNc2c(N3CCCC3)c(=O)c2=O)cc1)N1CCc2ccccc2C1`, the IC50 is 4370 nM and the IC90 is more than 25 µM.
Regarding `COc1cc(NC(=O)C/C(C)=N/NC(=O)c2ccccn2)c(OC)cc1Cl`, the IC50 is 2780 nM and the IC90 is 7.91 µM.
On to `COC(=O)CSc1ncnc2c1cnn2-c1ccc(C)cc1C`, for which the IC50 was 4500 nM and the IC90 was determined as 6.95 µM.
Take `COc1ccc(N2CCN(C(=O)c3ccc(CNc4c(N5CCOCC5)c(=O)c4=O)cc3)CC2)cc1`: the IC50 is 3410 nM and the IC90 is more than 25 µM.
On to `CC1CC(C)CN(C(=O)c2ccc(CNc3c(N4CCCC4)c(=O)c3=O)cc2)C1` (stereo unspecified), for which the IC50 was 6340 nM and the IC90 is more than 25 µM.
Turning to `CCOC(=O)c1ccc(NC(=O)Cn2ncc(Cl)c(Cl)c2=O)cc1`, the IC50 is 440 nM and the IC90 amounted to 1.17 µM.
Consider `Cc1ccc2ccc3ccc(C)nc3c2n1`, for which the half-maximal inhibitory concentration (IC50) was 530 nM and the IC90 amounted to 0.78 µM.
For `CCOc1ccc(-c2cc(C)[n+](CCc3ccc(OC)c(OC)c3)c(-c3ccc(OCC)cc3)c2)cc1`, the IC50 was 660 nM and the IC90 came to 1.03 µM.
On the same counts, the results for `CC1CCCN(C(=O)c2ccc(CNc3c(N4CCCCC4)c(=O)c3=O)cc2)C1` (stereo unspecified) are 2580 nM and more than 25 µM.
The like results for `O=C(/C=C/c1ccccc1)N1CCN(CCN2C(=O)c3cccc4cccc(c34)C2=O)CC1` were, in that order, 2070 nM and 5.38 µM.
`CC(C)OC(=O)CSc1ncnc2c1cnn2-c1ccccc1`: the IC50 is 17900 nM and the IC90 is more than 25 µM.
The like results for `CCOC(=O)CSc1ncnc2c1cnn2-c1ccc(Cl)cc1` were, in that order, 4980 nM and more than 25 µM.
In the case of `CCOC(=O)CSc1ncnc2c1nnn2-c1ccc(F)cc1`, the IC50 was 3640 nM and the IC90 came to 6.16 µM.
Turning to `CCC(Sc1ncnc2c1nnn2-c1ccc(F)cc1)C(=O)OC` (stereo unspecified), the IC50 is 11900 nM and the IC90 was more than 25 µM.
Take `CCOC(=O)CNC(=O)[C@H](Cc1ccccc1)NC(=O)OCc1ccccc1` (Cbz-Phe-Gly-OEt): the IC50 was 2150 nM and the IC90 turned out to be 3.09 µM.
For the compound `O=C(CSc1nc2ccccc2c(=O)[nH]1)NCc1ccc(Cl)cc1`, the IC50 is 630 nM and 2190 nM; the IC90 is 0.9 µM and 3.16 µM.
On to `Cc1cccc(/C=C/C(=O)c2ccc([N+](=O)[O-])o2)c1`, for which the IC50 is 450 nM and the 90% effect concentration (IC90) is 0.65 µM.
For `Cc1nn2c(NCc3ccccn3)cc(C(C)C)nc2c1-c1ccccc1`, the IC50 is 1970 nM and the IC90 is 2.54 µM.
As for `CNc1nc(SCc2ccccc2Cl)nc2c1CCCC2`, the IC50 was 1080 nM and the IC90 was found to be 2.33 µM.
The like results for `COC(=O)C1CC(=O)N(c2ccc(OCc3ccccc3Cl)cc2)C1` (stereo unspecified) were, in that order, 750 nM and 3.01 µM.
Turning to `COC(=O)CCc1nc2c(C#N)c(-c3ccc(Cl)cc3)ccn2n1`, the IC50 is 2540 nM and the IC90 was determined as 3.8 µM.
On the same counts, the results for `c1ccc(/N=C2\N=C(Nc3ccccn3)c3ccccc32)nc1` are 170 nM and 0.29 µM.
For the compound `O=C1C(Br)=Cc2cccc3cccc1c23`, the IC50 is 350 nM and the IC90 worked out at 1.13 µM.
`Cc1ccc(NC(=O)C2C3/C=C\CCCCC32)cc1C` (stereo unspecified): the IC50 was 1720 nM and the IC90 is more than 25 µM.
